Square brackets hold non-standard residues; d marks the D form. Peptide text beside a SMILES is read from it. ξ: configuration not given here. Ile(3ξ) = CCC(C)[C@H](N)C(=O)O; Thr(3ξ) = CC(O)[C@H](N)C(=O)O; Nle = CCCC[C@H](N)C(=O)O
Tests used:
[1] = test system: anti-apraglutide antibodies; assay: Anti-apraglutide antibodies ELISA in serum, Phase 2 SBS-IF trial (Example 5); format: in vivo, human
From the text: Blood samples for analysis of plasma concentration of apraglutide and fasting plasma L-citrulline, a marker of enterocyte mass, were collected at baseline, during first and second treatment injection, four days after first treatment injection and at the end of treatment.
A fully validated ELISA method was used for the detection of anti-apraglutide antibodies in serum, following a three-tiered assay approach. In the first tier, anti-apraglutide antibodies present in samples and controls bonded to apraglutide immobilized on a microtiter plate. The bound anti-apraglutide antibodies were then detected with protein A/G and protein L. A sample with a signal above the validated screening cut-point was considered potentially positive and was then tested in the second tier, the confirmatory assay. For this, samples were pre-treated with an excess of apraglutide prior to testing them in the assay described above. An inhibition of the signal equal to or greater than the validated confirmatory cut-point confirmed the presence of antibodies. Samples were then reported as anti-apraglutide antibody positive. Titers were then determined by serial dilution of all confirmed positive samples.

[2] = Phase I trial, single subcutaneous 5 mg dose in subjects with severe renal impairment vs normal renal function (Example 10), pharmacokinetics; format: in vivo, human; conditions: for Geometric mean ratio for AUCinf, severe renal impairment vs normal renal function / Geometric mean ratio for Cmax, severe renal impairment vs normal renal function: single SC 5 mg; for Geometric Mean Ratio of AUCinf / Geometric Mean Ratio of Cmax: single subcutaneous dose 5 mg apraglutide, severe renal impairment (Cohort 1) vs normal renal function (Cohort 2)
Experimental: The following non-limiting example describes a Phase I clinical trial in which subjects with normal and impaired kidney function are treated with the apraglutide formulations of the present disclosure. This Phase I clinical trial investigates the pharmacokinetics and safety of a single subcutaneous dose of 5 mg apraglutide in subjects with varying degrees of renal function. The renal function is calculated by the estimated glomerular filtration rate (eGFR) according to the Chronic Kidney Disease Epidemiology (CKD-EPI) Creatinine Equation.
The trial is a two-stage, open label, multi-center, non-randomized, Phase I trial. In Part 1 of the trial, 8 subjects with severe renal impairment (Cohort 1) and 6 subjects with normal renal function (Cohort 2) will be administered a single dose 5 mg apraglutide of the present disclosure. In Part 2 of the trial, 8 subjects with moderate renal impairment (Cohort 3) and 8 subjects with mild renal impairment (Cohort 4) will be administered a single dose 5 mg apraglutide of the present disclosure. Subjects will be enrolled if the geometric mean ratio (GMR) of AUCinf or AUClast for the severe renal impairment group compared to the control group is ≥2.
Patient eligibility is assessed during a screening visit. The main inclusion criteria are: • 1. All Participants • a. Age between 18 and 75 years inclusive • b. Subjects who are willing and able to comply with the study procedures • c. Subjects able to understand and willing to sign the informed consent • d. Body mass index (BMI) of ≥17.5 to ≤40 kg/m2; and a total body weight of >50 kg (110 lb). • e. […] Sterilized or infertile or postmenopausal females. • f. […] Healthy participants • a. No clinically relevant abnormalities (medical history, vital signs, ECG, safety labs) • b. eGFR measured by CKD-EPI≥90 mL/min/1.73 m2 at two screening visits • c. […] Participants with impaired renal function • a. Severe renal impairment: eGFR<30 mL/min/1.73 m2, but not requiring hemodialysis • b. Moderate renal impairment: eGFR≥30 mL/min/1.73 m2 and <60 mL/min/1.73 m2 • c. Mild renal impairment: eGFR≥60 and <90 mL/min/1.73 m2
Primary endpoint efficacy assessments will be performed at 240 hours after single dose. […] Secondary endpoint efficacy assessments will be performed at 240 hours, 7 days, 14 days, and 28 days. Primary and secondary endpoints will be evaluated across all subjects.
The secondary endpoints to be evaluated, include, but are not limited to: • 1. Area under the concentration-time curve up to the last measurable concentration from time 0 to 7 days (AUC0-7days). Samples collected over 168 hours after single dose • 2. Time to maximum concentration (Tmax). Samples collected over 240 hours after single dose • 3. Terminal elimination rate constant. Samples collected over 240 hours after single dose • 4. Terminal elimination half-life. Samples collected over 240 hours after single dose • 5. Apparent clearance after extravascular administration (CL/F). Samples collected over 240 hours after single dose • 6. Apparent volume of distribution after extravascular administration (Vz/F). Samples collected over 240 hours after single dose • 7. Number of participants with adverse events or adverse events of special interest at days 14-28 • 8. Clinically significant change from baseline in vital signs at days 14-28 • 9. Clinically significant change from baseline in recorded triplicate 12-lead ECG at days 14-28 • 10. Number of participants who experience a clinically significant change from baseline in clinical laboratory assessments at days 14-28
The plasma concentration of apraglutide after administration of a single subcutaneous dose of 5 mg apraglutide was monitored over a period of 240 hours in both healthy subjects (Cohort 2) and subjects with severe CKD (Cohort 1) and is presented in FIG. 29.
Two outliers were identified (one in each Cohort) when analyzing the individual apraglutide plasma concentration curves. […]

[3] = test system: patients with SBS-IF or SBS-II; assay: Safety assessments (adverse events) in Phase 2 metabolic balance trial (Example 6)
Experimental: Patients were treated with once weekly 5 mg apraglutide for four weeks. Apraglutide was provided as a freeze-dried powder for reconstitution in sterile water prior to injection, and treatments were administered as subcutaneous injections in the abdominal area. A 72-hour metabolic balance study was performed at baseline and at the end of the treatment period (starting one day after the fourth and last apraglutide injection). Each 72-hour metabolic balance study was performed during a five-day hospital admission. On the day of admission, patients were instructed to create a 24-hour drinking menu based on their habitual oral fluid intake. The drinking menu was to be followed during each balance study. On the second day of admission, just after the patients had urinated and emptied their stoma bags or defecated, the balance study was initiated. […] Daily PS and compliance to the predefined drinking menu was documented during admissions.
First, second and fourth apraglutide injections were performed at the hospital. Safety assessments included observation for injection site reactions, vital signs, blood samples, electrocardiogram (ECG), urinalysis and body weight. They were performed at baseline, during each injection of the trial drug, four days after first injection, at the end of treatment and 4-6 weeks after last dosing at the end of the trial, as shown in Table 20. Liver enzymes were measured prior to each drug administration.

[4] = Population PK/PD model of plasma apraglutide and plasma citrulline (healthy volunteers and SBS patients)
From the text: Plasma citrulline was used as a pharmacodynamic (“PD”) marker to describe the effect of apraglutide. Similar to the pharmacokinetic (“PK”) model development, the PK/PD model was developed for the healthy individuals from studies GLY-101-2015 and TA799-002 only. For development of the PD model, the PD observations were fitted together with the PK observations using the final PK model with its structure, residual error-, covariates- and random effects-models. The starting model was a turnover model where plasma citrulline was constantly synthesized and degraded with the synthesis rate ksyn and the degradation rate kdeg. Plasma apraglutide stimulated citrulline synthesis via a sigmoid Emax relationship with the baseline citrulline level R0, the half-maximal effect at the concentration EC50, the maximal effect Emax, and a Hill coefficient gamma. It was assumed that citrulline turnover was in steady state such that citrulline synthesis was determined solely by citrulline baseline and degradation. The population PK/PD of plasma apraglutide was established with data from two studies in healthy volunteers and two studies with SBS patients that tested doses between 2.5 and 50 mg SC.
The population PK/PD model was used to predict plasma apraglutide exposure and plasma citrulline trough concentration-time profiles with and without inter-individual variability for individuals with body weights between 40 and 120 kg receiving weekly doses of 2.5, 5, or 10 mg SC. […] Apraglutide exposure for body weights between 40 and 120 kg and apraglutide SC doses of 2.5, 5, or 10 mg was compared to post-hoc exposure estimates of SBS patients. Bracketing at a body weight of 50 kg between doses of 2.5 and 5 mg was simulated.
Plasma citrulline was described by a turnover model and maximal PD effect model.

[5] = cohort without the two outliers

**Q.** What does the source list for `CCCC[C@H](NC(=O)[C@H](CCC(=O)O)NC(=O)[C@H](CC(=O)O)NC(=O)[C@H](CO)NC(=O)[C@H](Cc1ccccc1)NC(=O)[C@H](CO)NC(=O)CNC(=O)[C@H](CC(=O)O)NC(=O)CNC(=O)[C@@H](N)Cc1c[nH]cn1)C(=O)N[C@H](Cc1ccccc1)C(=O)N[C@H](C(=O)N[C@H](C(=O)N[C@@H](CC(C)C)C(=O)N[C@@H](CC(=O)O)C(=O)N[C@@H](CC(C)C)C(=O)N[C@@H](CC(C)C)C(=O)N[C@@H](C)C(=O)N[C@@H](C)C(=O)N[C@@H](CCCNC(=N)N)C(=O)N[C@@H](CC(=O)O)C(=O)N[C@@H](Cc1ccccc1)C(=O)N[C@H](C(=O)N[C@@H](CC(N)=O)C(=O)N[C@@H](Cc1c[nH]c2ccccc12)C(=O)N[C@@H](CC(C)C)C(=O)N[C@H](C(=O)N[C@@H](CCC(N)=O)C(=O)N[C@H](C(=O)N[C@@H](CCCCN)C(=O)N[C@H](C(=O)N[C@H](C(=O)N[C@@H](CC(=O)O)C(N)=O)C(C)O)C(C)CC)C(C)O)C(C)CC)C(C)CC)C(C)CC)C(C)O` (stereo partly drawn) [apraglutide, L-histidyl-glycyl-L-aspartyl-glycyl-L-seryl-L-phenylalanyl-L-seryl-L-aspartyl-L-glutamyl-L-norleucyl-D-phenylalanyl-L-threonyl-Lisoleucyl-L-leucyl-L-aspartyl-L-leucyl-L-leucyl-L-alanyl-L-alanyl-L-arginyl-L-aspartyl-L-phenylalanyl-L-isoleucyl-L-asparaginyl-Ltryptophanyl-L-leucyl-L-isoleucyl-L-glutaminyl-L-threonyl-L-lysyl-L-isoleucyl-L-threonyl-Laspartic acid amide] (H-HGDGSFSDE[Nle][dF][Thr(3ξ)][Ile(3ξ)]LDLLAARDF[Ile(3ξ)]NWL[Ile(3ξ)]Q[Thr(3ξ)]K[Ile(3ξ)][Thr(3ξ)]D-NH2)?
**A.** Patients who developed anti-apraglutide antibodies ([1]; during the trial): Three; Patients positive for anti-apraglutide antibodies ([1]; end of 5 mg treatment period): Two; Patients positive for anti-apraglutide antibodies ([1]; end of 10 mg treatment period): one; Effects of anti-apraglutide antibodies on PK profile, pharmacodynamic response, adverse events ([1]; in vivo): No effects of anti-apraglutide antibodies were detected; Geometric mean ratio for AUCinf, severe renal impairment vs normal renal function ([2]; entire subject population): 0.614; Geometric mean ratio for Cmax, severe renal impairment vs normal renal function ([2]; entire subject population): 0.572; Geometric mean ratio for AUCinf, severe renal impairment vs normal renal function ([2]; outlier subjects removed): 0.849; Geometric mean ratio for Cmax, severe renal impairment vs normal renal function ([2]; outlier subjects removed): 0.774; Geometric Mean Ratio of AUCinf [2, 5]: 0.849; Geometric Mean Ratio of Cmax [2, 5]: 0.774; Geometric Mean Ratio of AUCinf ([2]; whole cohort): 0.614; Geometric Mean Ratio of Cmax ([2]; whole cohort): 0.572; Injection site reactions (transient), number of patients ([3]; 5 mg): One; Patients with serious adverse events ([3]; 5 mg): two; Serious adverse events assessed as related to the trial drug (abdominal pain) ([3]; 5 mg): One; Serious adverse events, number ([3]; 5 mg): three; Safety and tolerability in words ([3]; 5 mg once weekly, four weeks, SBS-II and SBS-IF): safe and well tolerated; Abdominal pain, number of patients ([3]; SBS-IF (N = 4), 5 mg): 2; Any adverse event, number of patients ([3]; SBS-IF (N = 4), 5 mg): 4; Flatulence, number of patients ([3]; SBS-IF (N = 4), 5 mg): 1; Fluid retention, number of patients ([3]; SBS-IF (N = 4), 5 mg): 1; Gastrointestinal stoma complication, number of patients ([3]; SBS-IF (N = 4), 5 mg): 2; Gastrointestinal stoma output abnormal, number of patients ([3]; SBS-IF (N = 4), 5 mg): 1; Gastrointestinal stoma output decreased, number of patients ([3]; SBS-IF (N = 4), 5 mg): 3; Nausea, number of patients ([3]; SBS-IF (N = 4), 5 mg): 4; Polyuria, number of patients ([3]; SBS-IF (N = 4), 5 mg): 1; Stoma complication, number of patients ([3]; SBS-IF (N = 4), 5 mg): 3; Weight increased, number of patients ([3]; SBS-IF (N = 4), 5 mg): 0; Abdominal pain, number of patients ([3]; SBS-II (N = 4), 5 mg): 1; Any adverse event, number of patients ([3]; SBS-II (N = 4), 5 mg): 4; Flatulence, number of patients ([3]; SBS-II (N = 4), 5 mg): 3; Fluid retention, number of patients ([3]; SBS-II (N = 4), 5 mg): 1; Gastrointestinal stoma complication, number of patients ([3]; SBS-II (N = 4), 5 mg): 3; Gastrointestinal stoma output abnormal, number of patients ([3]; SBS-II (N = 4), 5 mg): 3; Gastrointestinal stoma output decreased, number of patients ([3]; SBS-II (N = 4), 5 mg): 3; Nausea, number of patients ([3]; SBS-II (N = 4), 5 mg): 1; Polyuria, number of patients ([3]; SBS-II (N = 4), 5 mg): 2; Stoma complication, number of patients ([3]; SBS-II (N = 4), 5 mg): 3; Weight increased, number of patients ([3]; SBS-II (N = 4), 5 mg): 2; Abdominal pain, number of patients ([3]; Total (N = 8), 5 mg): 3; Any adverse event, number of patients ([3]; Total (N = 8), 5 mg): 8; Flatulence, number of patients ([3]; Total (N = 8), 5 mg): 4; Fluid retention, number of patients ([3]; Total (N = 8), 5 mg): 2; Gastrointestinal stoma complication, number of patients ([3]; Total (N = 8), 5 mg): 5; Gastrointestinal stoma output abnormal, number of patients ([3]; Total (N = 8), 5 mg): 4; Gastrointestinal stoma output decreased, number of patients ([3]; Total (N = 8), 5 mg): 6; Nausea, number of patients ([3]; Total (N = 8), 5 mg): 5; Polyuria, number of patients ([3]; Total (N = 8), 5 mg): 3; Stoma complication, number of patients ([3]; Total (N = 8), 5 mg): 6; Weight increased, number of patients ([3]; Total (N = 8), 5 mg): 2; Body weight coefficient on clearance βC1/F/B,W [4]: 1.8; Dose at which citrulline saturation appears [4]: 5 mg; Dose coefficient on zero-order absorption duration βTk0,Dose [4]: 0.249; Half-life, population PK estimate [4]: 31.2 h; Maximal effect (Emax) on citrulline synthesis [4]: 0.626; Central volume of distribution, population PK estimate ([4]; 70-kg individual, 5 mg SC): 31.5 L; Clearance, population PK estimate ([4]; 70-kg individual, 5 mg SC): 16.8 L/day; Volume of distribution, population PK/PD model estimate ([4]; 70-kg individual, 5 mg SC): 31.3 L; Half-maximal effective apraglutide concentration (EC50) on plasma citrulline ([4]; plasma concentration, Emax turnover model): 0.0137 µg/mL
